Values of other authors as cited in PMC4291223, “Inhibitors of CLK Protein Kinases Suppress Cell Growth and Induce Apoptosis by Modulating Pre-mRNA Splicing” (PLoS ONE, 2015).

Test system: CLK1 and CLK4
Design: method as in PMID 15010457
Details: cited from earlier work

## CCN1/C(=C/C(C)=O)Sc2ccc(OC)cc21 [TG003]
  CLK selectivity: selectively inhibits CLK1 and CLK4
